Columns and labels:
[1] = molecular target: T1, Bromodomain-containing protein 3 (Homo sapiens, UniProt Q15059); test: (§1) FP Competitive Binding Assay (No.350): Fluorescence Polarization (FP) competitive binding studies (see above) were carried out using the FAM labeled fluorescent probe Cpd. No. 350 to determine binding affinities of representative compounds to both BD1 and BD2 of BRD2, BRD3, and BRD4 proteins. Equilibrium dissociation constants (Id) values of Cpd. […] Final Cpd. […] Kd values of Cpd.
[2] = molecular target: Bromodomain-containing protein 4 (Homo sapiens, UniProt O60885); test: as §1
[3] = molecular target: T2, Bromodomain-containing protein 2 (Homo sapiens, UniProt P25440); test: as §1
[4] = molecular target: T2, Bromodomain-containing protein 2; test: as §1; remark: listed apart in the source
[5] = molecular target: T1, Bromodomain-containing protein 3; test: as §1; remark: listed apart in the source

T2 sequence (P25440 whole entry): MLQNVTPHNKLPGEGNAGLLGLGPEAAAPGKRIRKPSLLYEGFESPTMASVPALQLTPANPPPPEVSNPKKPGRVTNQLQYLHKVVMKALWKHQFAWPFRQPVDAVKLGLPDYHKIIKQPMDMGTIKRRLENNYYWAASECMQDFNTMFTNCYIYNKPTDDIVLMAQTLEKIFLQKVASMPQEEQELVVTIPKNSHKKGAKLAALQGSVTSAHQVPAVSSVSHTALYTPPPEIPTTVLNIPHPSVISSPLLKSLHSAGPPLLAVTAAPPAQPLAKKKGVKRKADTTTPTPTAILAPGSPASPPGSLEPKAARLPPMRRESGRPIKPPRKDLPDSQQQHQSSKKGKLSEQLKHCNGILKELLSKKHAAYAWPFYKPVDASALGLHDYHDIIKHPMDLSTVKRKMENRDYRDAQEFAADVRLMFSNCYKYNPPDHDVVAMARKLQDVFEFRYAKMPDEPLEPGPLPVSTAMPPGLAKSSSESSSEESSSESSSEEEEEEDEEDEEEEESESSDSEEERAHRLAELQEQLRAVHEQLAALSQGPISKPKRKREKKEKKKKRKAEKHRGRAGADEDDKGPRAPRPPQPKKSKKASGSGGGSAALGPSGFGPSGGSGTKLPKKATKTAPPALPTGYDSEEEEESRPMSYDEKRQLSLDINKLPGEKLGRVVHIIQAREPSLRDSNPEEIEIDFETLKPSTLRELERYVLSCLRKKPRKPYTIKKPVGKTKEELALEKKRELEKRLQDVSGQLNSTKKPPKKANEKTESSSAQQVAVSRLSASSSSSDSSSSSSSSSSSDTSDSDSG
T1 sequence (Q15059 whole entry): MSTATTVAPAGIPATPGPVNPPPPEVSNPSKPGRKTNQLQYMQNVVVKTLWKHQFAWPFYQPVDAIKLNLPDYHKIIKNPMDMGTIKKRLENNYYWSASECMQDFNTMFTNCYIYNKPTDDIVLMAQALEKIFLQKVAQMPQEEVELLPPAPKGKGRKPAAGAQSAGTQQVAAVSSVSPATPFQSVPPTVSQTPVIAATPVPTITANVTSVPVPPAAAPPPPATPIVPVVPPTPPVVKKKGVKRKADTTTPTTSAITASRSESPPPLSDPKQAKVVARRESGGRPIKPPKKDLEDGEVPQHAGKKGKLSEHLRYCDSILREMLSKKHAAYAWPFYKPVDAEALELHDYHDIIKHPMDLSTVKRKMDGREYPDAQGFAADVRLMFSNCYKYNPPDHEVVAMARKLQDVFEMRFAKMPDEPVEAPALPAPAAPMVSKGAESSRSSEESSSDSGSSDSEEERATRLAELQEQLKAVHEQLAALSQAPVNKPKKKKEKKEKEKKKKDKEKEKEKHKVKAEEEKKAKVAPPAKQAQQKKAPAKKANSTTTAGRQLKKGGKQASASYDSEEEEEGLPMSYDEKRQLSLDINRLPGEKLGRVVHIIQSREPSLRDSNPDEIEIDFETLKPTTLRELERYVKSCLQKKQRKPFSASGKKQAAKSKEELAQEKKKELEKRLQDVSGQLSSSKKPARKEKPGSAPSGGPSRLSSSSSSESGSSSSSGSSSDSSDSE

| Structure (SMILES) | Ki [1] | Ki [2] | Ki [3] | Ki [4] | Ki [5] |
| --- | --- | --- | --- | --- | --- |
| COc1cc2c(cc1-c1c(C)noc1C)[nH]c1nc(C)nc(-c3ccc(NC(=O)N4CCN(C5COC5)CC4)c4ccccc34)c12 | 23 nM | 39 nM | 17 nM | 7.8 nM | 3.5 nM |
| COc1cc2c(cc1-c1c(C)noc1C)[nH]c1nc(C)nc(-c3ccc(NC(=O)N4CCN(C)CC4)c4ccccc34)c12 | 7.5 nM | 11 nM | 4.6 nM | 2.6 nM | 0.82 nM |
| COc1cc2c(cc1-c1c(C)noc1C)[nH]c1nc(C)nc(-c3cc(C(=O)NC4CCN(C)CC4)cc(C(C)(C)C)c3)c12 | 6.3 nM | 9 nM | 2.2 nM | 5.2 nM | 1.1 nM |

Source: ChEMBL document CHEMBL5725377, “BET bromodomain inhibitors and therapeutic methods using the same” (2017)
